The values that follow come from patent US20180049996A1, “THERAPEUTIC AGENT FOR CHRONIC RESPIRATORY DISEASE AND COMPOSITION FOR INHIBITING CARDIAC FIBROSIS” (NIPPON HYPOX LABORATORIES INCORPORATED, priority 2015, published 2018).

Marks after values point to notes of the source that are not given here.

Experiment [1] has as its system Lung Inflammation Induced by Tobacco Smoke. Briefly: Histopathologic examination of lungs, COPD model. In kind it is in vivo, C57BL/6N mice. Conditions: HTHQ 10 and 20 mg/kg/day oral; tobacco smoke 10 days + LPS; compared to COPD model group. The procedure: 6 week old male SPF C57BL/6N mice, 20 to 25 g of body weight, were purchased from CORETEC INC. (South Korea).
The tests were conducted as follows. The mice in the COPD (chronic obstructive pulmonary disease) model group of the test groups were exposed to tobacco smoke for 1 hour per day (8 cigarettes/day) for 10 days and LPS (5 μg/50 μL/mouse) was intranasally administered to the mice on day 8 after the start of the tests. Roflumilast, the positive control substance, was orally administered to the mice in the positive control substance-administered group at 10 mg/kg body weight/day, and then they were exposed to tobacco smoke for 10 days starting from 1 hour after the administration of roflumilast, and LPS (5 μg/50 μL/mouse) was intranasally administered to the mice on day 8 after the start of the tests. Here, roflumilast is a selective phosphodiesterase 4 inhibitor and is a substance which is used as a therapeutic agent of COPD and asthma (approved in Europe and the United States, not approved in Japan). […] All the animals were euthanized on day 11 and bronchoalveolar lavage (BAL) examination and histopathologic examination of lungs were conducted. The mice in the normal control group and the test groups were fed sterile tap water and standard food for rodents during the test period. […]

Experiment [2] relates to ovalbumin-specific IgE. Description: Content of ovalbumin-specific IgE in serum, ovalbumin asthma model. In kind it is in vivo, BALB/c female mice. As to conditions: HTHQ 20 and 40 mg/kg/day oral; day 25; no significant difference. The procedure: 6 week old BALB/c female mice were purchased and the mice were divided into 5 groups with 5 animals per group shown in Table 3 below after habituation breeding of about 2 weeks.
The test was conducted on the schedule of sensitization, causing diseases and administration of test materials shown in FIG. 12. “IP” in FIG. 12 refers to ovalbumin sensitization treatment by the intraperitoneal administration of ovalbumin/aluminum hydroxide, and “IH” refers to inhalation exposure treatment of ovalbumin, and “PO” refers to the administration of the test materials. Specifically, 200 μL of PBS (pH 7.4) emulsified by the addition of 20 μg ovalbumin and 2 mg aluminum hydroxide as an adjuvant was intraperitoneally administered to all mice in 4 groups except the normal control group (the initial sensitization, day 1 of the test). Then, after 2 weeks (day 14 of the test), the second sensitization treatment was conducted in the same way as the initial sensitization. […]
On day 25 of the test, the total contents of IgE and contents of ovalbumin-specific IgE in serums were measured using blood collected from orbital sinuses of the mice. An ELISA kit for IgE measurement (a product from BioLegend, Inc.) was used for the measurement and the contents were measured at wavelength of 450 nm using a micro plate reader (a product from Bio-Rad Laboratories, Inc.).

The subject of experiment [3] is Myocardial Disorder Induced by Doxorubicin. Description: Relative weights of the hearts, myocardial disorder induced by doxorubicin. In kind it is in vivo, female SD rats. Conditions: Test group 2: doxorubicin 13 mg/kg + HTHQ 50 mg/kg oral. An excerpt: Doxorubicin is used to produce disease-model animals of cardiomyopathy. […] The recombinant human erythropoietin (rHuEPO) is mainly used in the treatment of renal anemia etc., and has the effect to protect myocardium. The test group 3 is used to confirm the presence or absence of the inhibitory effect brought about by combining HTHQ and rHuEPO on myocardial disorder. […] Recombinant human erythropoietin was daily administered to the rats in test group 3 starting from 3 days before the administration of doxorubicin by intravenous injection. The number of animals in each group was 16. 8 animals of each group were sacrificed after collecting blood on day 7 and 14 after the administration of doxorubicin, and the autopsy of the hearts, the calculation of the relative weights of the hearts, the histopathologic examination of the hearts and the hematological examination were conducted. Myocardium is hypertrophied by fibrosing and the weight of the myocardium increases, and the relative weight of the heart tends to increase. […] Also, there was no significant difference between the other groups on day 7 and 14 after the administration (p<0.05).

Take `CCCCCCOc1cc(C)c(O)c(C)c1C` [HTHQ, 2,3,5-trimethylhydroquinone-1-hexyl ether]: in experiment [1], the “infiltration of inflammatory cells in peribronchial lung tissue (HE stain)” value was “significantly reduced in a dose-dependent manner”. In addition, the “amount of ovalbumin-specific IgE in serum” value in experiment [2] is “a declining trend was seen”. Also, the “relative weight of the heart” value is 0.4208 ± 0.0409^a % in experiment [3] (Day 7 after administration, p<0.05 vs Test group 1) and 0.3658 ± 0.0357% in experiment [3] (Day 14 after administration).
